Experimental data as given in patent US10703764B2, “Benzopiperazine compositions as BET bromodomain inhibitors” (FORMA Therapeutics, Inc., priority 2013, dated 2020).

Key:
[1] = target: T1, BRD4 BD1 (Homo sapiens, UniProt O60885); test: AlphaScreen binding assay, BRD4 Bromodomain 1
T1 construct: made in house
Procedure, shortened: (§1)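 An AlphaScreen competition format was used with His-BRD4 BD1 or BD2 and biotin-H4 K5/8/12/16-acetyl peptide, each at matched final levels of 50 nM (BD1) or 100 nM (BD2). Incubation in HEPES/NaCl buffer with 0.1% BSA and 0.01% Triton X-100 ran ≥1 h before IC50 determination.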

[2] = tested on: MV4-11 cells; test: Oncology cell growth assay (3-day proliferation, CellTiter-Glo); assay type: cell-based; conditions: Homo sapiens, MV4-11, 72 h, AML cell line MV4-11, 72 hours, compounds grouped by IC50 range, read-out: MV4-11 IC50 (inhibition of proliferation, gIC50)
Protocol: The impact of Example compounds on cancer cell proliferation was determined using the acute myelocytic leukemia (AML) cell line MV4-11 (ATCC) in a 3-day proliferation assay. MV4-11 cells were maintained in RPMI 1640 media supplemented with 10% FBS at 37° C. and an atmosphere of 5% CO2. For compound testing, compound dilutions series were prepared in DMSO via a 3-fold serial dilution from 2 mM to 0.001 mM in 384-well white flat bottom plates. The final compound concentrations in the wells were 10, 3.3, 1.1, 0.37, 0.12, 0.041, 0.013 and 0.0045 μM. MV4-11 cells were plated at a density of 3000 cells/well in final volume of 50 μl culture media and incubated for 72 hours. […] Luminescent signal from the CellTiter-Glo assay was read on an EnVision multilabel plate reader (PerkinElmer). Values for the concentration that inhibited cell growth by 50% (gIC50) between the DMSO control and background control (no cells) were determined using IDBS Activity Base software with a four parameter logistic curve fit by the equation y=A+((B−A)/(1+((C/x)^D))), wherein A denotes the bottom plateau of the curve, B denotes the top plateau of the curve, C denotes the x value at the middle of the curve, D denotes the slope factor, x denotes the original known x values, and y denotes the original known y values. Data was fitted using the Levenburg Marquardt algorithm.

[3] = target: T2, BRD4 BD2 (Homo sapiens, UniProt O60885); test: AlphaScreen binding assay, BRD4 Bromodomain 2
T2 construct: made in house
Procedure, shortened: as §1

Structure (SMILES)	IC50 [1] [nM]	IC50 [2] [nM]	IC50 [3] [nM]
CC(=O)N1c2ccc(-c3cnn(C4CN[C@H]4C)c3)cc2N(C(=O)OC2CC(F)(F)C2)C[C@@H]1C (mixture of isomers) [Example I-168, 3,3-difluorocyclobutyl (3S)-4-acetyl-3-methyl-7-{1-[(2S)-2-methylazetidin-3-yl]-1H-pyrazol-4-yl}-1,2,3,4-tetrahydroquinoxaline-1-carboxylate]	100 to 1000	> 500	
CC(=O)N1c2ccc(-c3cnn(C4CCNC(=O)C4)c3)cc2N(C(=O)OC2CCC2)C[C@@H]1C (single isomer, unassigned) [Example I-176]	100 to 1000	100 to 500	
CC(=O)N1c2ccc(-c3cnn(C4CS(=O)(=O)C4)c3)cc2N(C(=O)OC2CC(F)(F)C2)C[C@@H]1C [Example I-1, 3,3-difluorocyclobutyl (3S)-4-acetyl-7-[1-(1,1-dioxo-1λ^6-thietan-3-yl)-1H-pyrazol-4-yl]-3-methyl-1,2,3,4-tetrahydroquinoxaline-1-carboxylate]	100 to 1000	100 to 500	
CC(=O)N1c2ccc(-c3cnn(C4CCS(=O)(=O)CC4)c3)cc2N(C(=O)OC2CCC2)C[C@@H]1C [Example I-154, cyclobutyl (3S)-4-acetyl-7-[1-(1,1-dioxo-1λ^6-thian-4-yl)-1H-pyrazol-4-yl]-3-methyl-1,2,3,4-tetrahydroquinoxaline-1-carboxylate]	< 100	< 100	
CC(=O)N1c2ccc(-c3cnn(C4CCS(=O)(=O)CC4)c3)cc2N(C(=O)OC(C)C)C[C@@H]1C [Example I-156, propan-2-yl (3S)-4-acetyl-7-[1-(1,1-dioxo-1λ^6-thian-4-yl)-1H-pyrazol-4-yl]-3-methyl-1,2,3,4-tetrahydroquinoxaline-1-carboxylate]	100 to 1000	> 500	
CC(=O)N1c2ccc(-c3cnn(C4CN[C@H]4C)c3)cc2N(C(=O)OC(C)C)C[C@@H]1C (stereo partly drawn) [Example I-159, propan-2-yl (3S)-4-acetyl-3-methyl-7-{1-[(2S)-2-methylazetidin-3-yl]-1H-pyrazol-4-yl}-1,2,3,4-tetrahydroquinoxaline-1-carboxylate]	100 to 1000	< 100	
CC(=O)N1c2ccc(-c3cnn(C4CN[C@H]4C)c3)cc2N(C(=O)C2CC2)C[C@@H]1C (stereo partly drawn) [Example I-160, 1-[(2S)-4-cyclopropanecarbonyl-2-methyl-6-{1-[(2S)-2-methylazetidin-3-yl]-1H-pyrazol-4-yl}-1,2,3,4-tetrahydroquinoxalin-1-yl]ethan-1-one]	100 to 1000	< 100	
CC(=O)N1c2ccc(-c3cnn(C4CCNC(=O)C4)c3)cc2N(C(=O)OC2CCOCC2)C[C@@H]1C (stereo partly drawn) [Example I-163, oxan-4-yl (3S)-4-acetyl-3-methyl-7-[1-(2-oxopiperidin-4-yl)-1H-pyrazol-4-yl]-1,2,3,4-tetrahydroquinoxaline-1-carboxylate]	100 to 1000	100 to 500	
CC(=O)N1c2ccc(-c3cnn(C4CCNC(=O)C4)c3)cc2N(C(=O)OC2CC(F)(F)C2)C[C@@H]1C (stereo partly drawn) [Example I-164, 3,3-difluorocyclobutyl (3S)-4-acetyl-3-methyl-7-[1-(2-oxopiperidin-4-yl)-1H-pyrazol-4-yl]-1,2,3,4-tetrahydroquinoxaline-1-carboxylate]	100 to 1000	> 500	
CC(=O)N1c2ccc(-c3cnn(C4CCNC(=O)C4)c3)cc2N(C(=O)OC2CCC(F)(F)CC2)C[C@@H]1C (stereo partly drawn) [Example I-165, 4,4-difluorocyclohexyl (3S)-4-acetyl-3-methyl-7-[1-(2-oxopiperidin-4-yl)-1H-pyrazol-4-yl]-1,2,3,4-tetrahydroquinoxaline-1-carboxylate]	100 to 1000	100 to 500	
COC(=O)N1c2ccc(-c3ccc(S(C)(=O)=O)cc3)cc2N(C(=O)Oc2cccnc2)C[C@@H]1C [Example I-1276]	1000 to 10000		50 to 500
CC(=O)N1c2ccc(-c3ccc(NS(C)(=O)=O)cc3)cc2N(C(=O)Oc2cccnc2)C[C@@H]1C [Example I-1277]	1000 to 10000		50 to 500
COC(=O)N1c2ccc(-c3ccc(NS(C)(=O)=O)cc3)cc2N(C(=O)Oc2cccnc2)C[C@@H]1C [Example I-1278]	1000 to 10000		> 500
COC(=O)N1c2ccc(-c3cnn(CCS(C)(=O)=O)c3)cc2N(C(=O)Oc2cccnc2)C[C@@H]1C [Example I-1280]	1000 to 10000		50 to 500
COC(=O)N1c2ccc(-c3cnn(CCO)c3)cc2N(C(=O)Oc2cccnc2)C[C@@H]1C [Example I-1282]	1000 to 10000		> 500
COC(=O)N1c2ccc(-c3cnn(C4CC4)c3)cc2N(C(=O)Oc2cccnc2)C[C@@H]1C [Example I-1283]	1000 to 10000		50 to 500
COC(=O)N1c2ccc(-c3cnn(C(C)(C)CO)c3)cc2N(C(=O)Oc2cccnc2)C[C@@H]1C [Example I-1285]	1000 to 10000		50 to 500
COC(=O)N1c2ccc(-c3ccc(N4CCCS4(=O)=O)cc3)cc2N(C(=O)Oc2cccnc2)C[C@@H]1C [Example I-1287]	1000 to 10000		> 500
CC(=O)N1c2ccc(-c3cnn(CCC#N)c3)cc2N(C(=O)Oc2cccnc2)C[C@@H]1C [Example I-1288]	1000 to 10000		50 to 500
COC(=O)N1c2ccc(-c3cnn(CCC#N)c3)cc2N(C(=O)Oc2cccnc2)C[C@@H]1C [Example I-1289]	1000 to 10000		50 to 500

Structure (SMILES)	IC50 [1] [nM]	IC50 [2] [nM]	IC50 [3] [nM]
CC(=O)N1c2ccc(-c3ccc4c(c3)CCN4S(C)(=O)=O)cc2N(C(=O)Oc2cccnc2)C[C@@H]1C [Example I-1290]	1000 to 10000		50 to 500
COC(=O)N1c2ccc(-c3ccc4c(c3)CCN4S(C)(=O)=O)cc2N(C(=O)Oc2cccnc2)C[C@@H]1C [Example I-1291]	1000 to 10000		> 500
COC(=O)N1c2ccc(-c3ccc(N(C)S(C)(=O)=O)cc3)cc2N(C(=O)Oc2cccnc2)C[C@@H]1C [Example I-1293]	1000 to 10000		> 500
COC(=O)N1c2ccc(-c3cnn(C4CNC4)c3)cc2N(C(=O)Oc2cccnc2)C[C@@H]1C [Example I-1295]	1000 to 10000		50 to 500
COC(=O)N1c2ccc(-c3cnn(C4CCNCC4)c3)cc2N(C(=O)Oc2cccnc2)C[C@@H]1C [Example I-1296]	1000 to 10000		50 to 500
COC(=O)N1c2ccc(-c3cnn(C(C)(C)CO)c3)cc2N(C(=O)Oc2ccccn2)C[C@@H]1C [Example I-1313]	1000 to 10000		50 to 500
CC(=O)N1c2ccc(-c3ccc(S(C)(=O)=O)cc3)cc2N(C(=O)Oc2ccccn2)C[C@@H]1C [Example I-1314]	1000 to 10000		50 to 500
COC(=O)N1c2ccc(-c3ccc(S(C)(=O)=O)cc3)cc2N(C(=O)Oc2ccccn2)C[C@@H]1C [Example I-1315]	1000 to 10000		50 to 500
COC(=O)N1c2ccc(-c3ccc(NS(C)(=O)=O)cc3)cc2N(C(=O)Oc2ccccn2)C[C@@H]1C [Example I-1317]	1000 to 10000		50 to 500
CC(=O)N1c2ccc(-c3cnn(CCS(C)(=O)=O)c3)cc2N(C(=O)Oc2ccccn2)C[C@@H]1C [Example I-1318]	1000 to 10000		50 to 500
COC(=O)N1c2ccc(-c3cnn(CCS(C)(=O)=O)c3)cc2N(C(=O)Oc2ccccn2)C[C@@H]1C [Example I-1319]	1000 to 10000		50 to 500
CC(=O)N1c2ccc(-c3cnn(CC(C)(C)O)c3)cc2N(C(=O)Oc2ccccn2)C[C@@H]1C [Example I-1320]	1000 to 10000		50 to 500
COC(=O)N1c2ccc(-c3cnn(CC(C)(C)O)c3)cc2N(C(=O)Oc2ccccn2)C[C@@H]1C [Example I-1321]	1000 to 10000		50 to 500
COC(=O)N1c2ccc(-c3ccc(N4CCCS4(=O)=O)cc3)cc2N(C(=O)Oc2ccccn2)C[C@@H]1C [Example I-1325]	1000 to 10000		50 to 500
COC(=O)N1c2ccc(-c3cnn(CCC#N)c3)cc2N(C(=O)Oc2ccccn2)C[C@@H]1C [Example I-1327]	1000 to 10000		50 to 500
COC(=O)N1c2ccc(-c3ccc4c(c3)CCN4S(C)(=O)=O)cc2N(C(=O)Oc2ccccn2)C[C@@H]1C [Example I-1329]	1000 to 10000		50 to 500
COC(=O)N1c2ccc(-c3ccc(N(C)S(C)(=O)=O)cc3)cc2N(C(=O)Oc2ccccn2)C[C@@H]1C [Example I-1331]	1000 to 10000		50 to 500
COC(=O)N1c2ccc(-c3cnn(C4CCNCC4)c3)cc2N(C(=O)Oc2ccccn2)C[C@@H]1C [Example I-1333]	1000 to 10000		50 to 500
COC(=O)N1c2ccc(-c3cnn(CCO)c3)cc2N(C(=O)Oc2ccccn2)C[C@@H]1C [Example I-1335]	1000 to 10000		50 to 500
